tested on: ethanol-induced ulcer; test: Anti-ulcer activities, ethanol-induced ulcer; assay type: in vivo; conditions: po, 1 h; rat, perorally, dose 10 μg/kg, 30 min before ethanol
Method: 1. Anti-ulcer activities, Ethanol-induced ulcer
Inhibitory effects of ethanol-induced ulcer are determined by the method of A. Robert (Gastroenterology 77, 433-43). Rats are fasted for 24 hrs. and are given 1 ml of absolute ethanol perorally. 1 hour after administration of ethanol, the stomach of the rat is removed. The length of each ulcer occurring in the grandulor stomach is determined and each ulcer in one rat is acounted as ulcer-index. The test compounds are given perorally 30 minutes before ethanol administration.

| SMILES | inhibition in vivo at 0.01 mg/kg [%] |
| --- | --- |
| O=C(O)COCCC1=C[C@H]2C[C@@H](O)[C@H](/C=C/[C@@H](O)C3COc4ccccc4O3)[C@H]2C1 (stereo partly drawn) [Compound 45, 15α-Hydroxy-15-(1,4-benzodioxane-2-yl)-3-oxa-isocarbacyclin] | 58.9 |
| CC1([C@H](O)/C=C/[C@@H]2[C@H]3CC(CCOCC(=O)O)=C[C@H]3C[C@H]2O)Cc2ccccc2C1 [Compound 41, 15α-Hydroxy-15-(2-methylindan-2-yl)-3-oxa-isocarbacyclin] | 64.2 |
| O=C(O)CCCC=C1C[C@H]2C[C@@H](O)[C@H](/C=C/[C@@H](O)C3COc4ccccc4O3)[C@H]2C1 (stereo partly drawn) [Compound 5, 15α-Hydroxy-15-(benzodioxane-2-yl)-carbacyclin] | 71.9 |

same assay, conditions: po, 1 h; rat, perorally, dose 30 μg/kg, 30 min before ethanol

| SMILES | inhibition in vivo at 0.03 mg/kg [%] |
| --- | --- |
| COc1ccc2c(c1)OCC([C@H](O)/C=C/[C@@H]1[C@H]3CC(=CCCCC(=O)O)C[C@H]3C[C@H]1O)O2 (stereo partly drawn) [Compound 11, 15α-Hydroxy-15-(6-methoxybenzodioxane-2-yl)-carbacyclin] | 82.1 |
| O=C(O)CCCC=C1C[C@H]2C[C@@H](O)[C@H](C#C[C@@H](O)C3Cc4ccccc4C3)[C@H]2C1 [Compound 3, 13,14-Dehydro-15α-hydroxy-15-(indan-2-yl)-carbacyclin] | 93.4 |
| O=C(O)COCC=C1C[C@H]2C[C@@H](O)[C@H](/C=C/[C@@H](O)C3Cc4ccccc4C3)[C@H]2C1 [Compound 35, 15α-Hydroxy-15-(indan-2-yl)-3-oxa-carbacyclin] | 44.6 |
| CC1([C@H](O)/C=C/[C@@H]2[C@H]3CC(=CCOCC(=O)O)C[C@H]3C[C@H]2O)Cc2ccccc2C1 [Compound 33, 15α-Hydroxy-15-(2-methylindan-2-yl)-3-oxa-carbacyclin] | 47.6 |

same assay, conditions: po, 1 h; rat, perorally, dose 100 μg/kg, 30 min before ethanol

| SMILES | inhibition in vivo at 0.1 mg/kg [%] |
| --- | --- |
| O=C(O)CCCC=C1C[C@H]2C[C@@H](O)[C@H](/C=C/[C@@H](O)C3Cc4ccccc4C3)[C@H]2C1 [Compound 7, 15α-Hydroxy-15-(indan-2-yl)-carbacyclin] | 68.7 |
| O=C(O)COCCC1=C[C@H]2C[C@@H](O)[C@H](/C=C/[C@@H](O)C3Cc4ccccc4C3)[C@H]2C1 [Compound 43, 15α-Hydroxy-15-(indan-2-yl)-3-oxa-isocarbacyclin] | 51.8 |
| O=C(O)CCCC=C1C[C@H]2C[C@@H](O)[C@H](/C=C/[C@@H](O)c3ccc4c(c3)OCCO4)[C@H]2C1 [Compound 1, 15α-Hydroxy-15-(benzodioxane-6-yl)-carbacyclin] | 41.6 |
| CC1([C@H](O)/C=C/[C@@H]2[C@H]3CC(=CCCCC(=O)O)C[C@H]3C[C@H]2O)COc2ccccc2O1 (stereo partly drawn) [Compound 17, 15β-Hydroxy-15-(2-methylbenzodioxane-2-yl)-carbacyclin] | 72.6 |
| O=C(O)COCC=C1C[C@H]2C[C@@H](O)[C@H](/C=C/[C@@H](O)C3COc4ccccc4O3)[C@H]2C1 (stereo partly drawn) [Compound 37, 15α-Hydroxy-15-(1,4-benzodioxane-2-yl)-3-oxa-carbacyclin] | 51.6 |

same assay, conditions: po, 1 h; rat, perorally, dose 300 μg/kg, 30 min before ethanol

| SMILES | inhibition in vivo at 0.3 mg/kg [%] |
| --- | --- |
| O=C(O)CCCC=C1C[C@H]2C[C@@H](O)[C@H](/C=C/[C@@H](O)C3Cc4ccc([N+](=O)[O-])cc4C3)[C@H]2C1 (stereo partly drawn) [Compound 23, 15α-Hydroxy-15-(5-nitroindan-2-yl)-carbacyclin] | 98.9 |
| Cc1ccc2c(c1)OCC([C@H](O)/C=C/[C@@H]1[C@H]3CC(=CCCCC(=O)O)C[C@H]3C[C@H]1O)O2 (stereo partly drawn) [Compound 9, 15α-Hydroxy-15-(6-methylbenzodioxane-2-yl)-carbacyclin] | 80.6 |

tested on: not listed separately; test: Stability test in buffer solutions, by thin layer chromatography; assay type: physicochemical; conditions: pH 7.4, room temperature, 2 months
Method: About 1.5 mg of test compound was dissolved in a drop of methanol and diluted in each 1.5 ml of a buffer solution *adjusted to pH 5.2, 7.2, 7.4, 9.2, respectively. Stability test was carried out at 37° C. in the case of pH 5.2, 7.2, 9.2 and at room temperature in the case of pH 7.4,.
Using a thin layer chromatography as the identification method, the test solution in each buffer solution of pH 5.2, 7.2, 7.4 was extracted with ethyl acetate and in the case of the test solution of […], it was diluted with water, acidified at pH 4 with 10% HCl and extracted with ethyl acetate.
*pH 5.2 (0.2M Pottasium hydrogen phthalate)

| SMILES | Stability (change in thin layer chromatography) |
| --- | --- |
| O=C(O)CCCC=C1C[C@H]2C[C@@H](O)[C@H](/C=C/[C@@H](O)C3COc4ccccc4O3)[C@H]2C1 (stereo partly drawn) [Compound 5, 15α-Hydroxy-15-(benzodioxane-2-yl)-carbacyclin] | No change |

Reference: patent US4730060A, “Carbacyclin derivatives, method of manufacturing the same and therapeutic agents containing these compounds” (Kotobuki Seiyaku Co. Ltd., priority 1986, dated 1988)
